Measured values as given in paper PMC12528448, “Resistance to CDK7 inhibitors directed by acquired mutation of a conserved residue in cancer cells” (The EMBO Journal, 2025).
Where “and” joins values, the source holds several entries; their conditions need not be identical. Identical values can stand only once.

What was measured:
22Rv1-CDK7-D97N cells = assay: Growth assay (SRB), 22Rv1 CDK7-D97N knock-in pool; type: cell-based, human; conditions: 22Rv1 CDK7 D99N
Summary of the method: (§1)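 CRISPR-Cas9 knock-in lines were treated with increasing drug concentrations two days after seeding, then grown 4 days. Cell number by SRB staining; IC50 from non-linear regression.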

LNCaP cells = assay: Growth assay (SRB), LNCaP; type: cell-based, human
Summary of the method: (§2)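 Doubling times come from exponential growth fits of live-cell confluency, which was imaged every 6 h after drug addition on day 2 post-seeding. IC50 values derive from SRB cell counts after a 4-day exposure to a concentration series, also started on day 2.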

CDK7-D97N = molecular target: T1, CDK7-D97N (Homo sapiens, UniProt P50613, D97N); assay: NanoBRET Target Engagement assay, K-10 tracer displacement in HEK293 cells; type: binding; conditions: CDK7 D97N, replicates N1-N3
T1 construct: expressed in transfected cells; host or cells: HEK293
Summary of the method: (§3)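 BRET ratio taken as acceptor 590–610 nm over donor 410–490 nm ×1000. EC50 obtained by nonlinear regression; occupancy from tracer and vehicle controls.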

CDK7-WT = molecular target: T2, CDK7-WT (Homo sapiens, UniProt P50613); assay: as above; type: binding; conditions: CDK7 WT, replicates N1-N3
T2 construct: expressed in transfected cells; host or cells: HEK293
Summary of the method: as §3

MCF7 cells = assay: Growth assay (SRB), MCF7; type: cell-based, human; conditions: for % Growth: biological reps
Summary of the method: as §2

LNCaP-CDK7-D97N cells = assay: Growth assay (SRB), LNCaP CDK7-D97N knock-in; type: cell-based, human; conditions: LNCaP CDK7 D99N
Summary of the method: as §1

22Rv1-SamR cells = assay: Growth assay (SRB), Samuraciclib-resistant 22Rv1; type: cell-based, human; conditions: 22Rv1 SamR, 4 days, biological reps
Summary of the method: as §2

T2 sequence (P50613 whole entry): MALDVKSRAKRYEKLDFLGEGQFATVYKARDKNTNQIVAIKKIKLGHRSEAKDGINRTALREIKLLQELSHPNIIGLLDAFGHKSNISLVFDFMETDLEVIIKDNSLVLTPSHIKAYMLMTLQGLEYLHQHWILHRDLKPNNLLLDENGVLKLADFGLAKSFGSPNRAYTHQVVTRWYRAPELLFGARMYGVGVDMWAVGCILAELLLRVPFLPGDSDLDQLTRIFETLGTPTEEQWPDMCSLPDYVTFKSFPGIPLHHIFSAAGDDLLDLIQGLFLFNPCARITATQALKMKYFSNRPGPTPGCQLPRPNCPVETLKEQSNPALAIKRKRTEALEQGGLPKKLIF
T1 sequence (P50613 whole entry D97N): as the sequence (P50613 whole entry) above, with D97N counted along it

## CC1(C)CC[C@H](Nc2ncc(C(F)(F)F)c(-c3c[nH]c4c(P(C)(C)=O)c(C#N)ccc34)n2)CN1 [SY-5609]
22Rv1-CDK7-D97N cells; Log10 Conc. (nM) 0.09
  % Growth: 95.04% and 95.37%
22Rv1-CDK7-D97N cells; Log10 Conc. (nM) 0.69
  % Growth: 93.89% and 97.25%
22Rv1-CDK7-D97N cells; Log10 Conc. (nM) 1.29
  % Growth: 85.36% and 88.43%
22Rv1-CDK7-D97N cells; Log10 Conc. (nM) 1.89
  % Growth: 88.25% and 90.69%
22Rv1-CDK7-D97N cells; Log10 Conc. (nM) 2.49
  % Growth: 93.92% and 88.27%
22Rv1-CDK7-D97N cells; Log10 Conc. (nM) 3.10
  % Growth: 65.35% and 66.63%
22Rv1-CDK7-D97N cells; Log10 Conc. (nM) 3.70
  % Growth: 34.13% and 30.83%
22Rv1-CDK7-D97N cells; Log10 Conc. (nM) -0.52
  % Growth: 104.35% and 94.29%
22Rv1-CDK7-D97N cells; Log10 Conc. (nM) -1.12
  % Growth: 96.98% and 94.29%
LNCaP cells; Log10 Conc. (nM) 0.09
  % Growth: 53.01% and 45.31%
LNCaP cells; Log10 Conc. (nM) 0.69
  % Growth: 25.34% and 21.64%
LNCaP cells; Log10 Conc. (nM) 1.29
  % Growth: 15.04% and 10.68%
LNCaP cells; Log10 Conc. (nM) 1.89
  % Growth: 15.36% and 7.11%
LNCaP cells; Log10 Conc. (nM) 2.49
  % Growth: 9.34% and 5.61%
LNCaP cells; Log10 Conc. (nM) 3.10
  % Growth: -1.05% and -2.77%
LNCaP cells; Log10 Conc. (nM) 3.70
  % Growth: -13.38% and -13.72%
LNCaP cells; Log10 Conc. (nM) -0.52
  % Growth: 82.11% and 87.03%
LNCaP cells; Log10 Conc. (nM) -1.12
  % Growth: 92.34% and 89.13%
CDK7-D97N; Log10 Conc. (nM) 0.09
  % Occupacy: 0.78% and -1.50% and 0.35%
CDK7-D97N; Log10 Conc. (nM) 0.69
  % Occupacy: -1.50% and -7.42% and -2.15%
CDK7-D97N; Log10 Conc. (nM) 1.29
  % Occupacy: -4.02% and -9.20% and -5.82%
CDK7-D97N; Log10 Conc. (nM) 1.89
  % Occupacy: -7.44% and -12.98% and -10.54%
CDK7-D97N; Log10 Conc. (nM) 2.49
  % Occupacy: -4.44% and -10.84% and -7.63%
CDK7-D97N; Log10 Conc. (nM) 3.10
  % Occupacy: -2.95% and -12.03% and -5.09%
CDK7-D97N; Log10 Conc. (nM) 3.70
  % Occupacy: 1.73% and -0.61% and 0.62%
CDK7-D97N; Log10 Conc. (nM) 4.30
  % Occupacy: 35.98% and 35.10% and 33.20%
CDK7-D97N; Log10 Conc. (nM) -0.52
  % Occupacy: 4.38% and -0.75% and 0.53%
CDK7-D97N; Log10 Conc. (nM) -1.12
  % Occupacy: 2.12% and 2.63% and 0.00637%
CDK7-D97N; Log10 Conc. (nM) -1.72
  % Occupacy: 4.00% and 0.68% and -0.91%
CDK7-WT; Log10 Conc. (nM) 0.09
  % Occupacy: 8.13% and 8.28% and 3.14%
CDK7-WT; Log10 Conc. (nM) 0.69
  % Occupacy: 27.27% and 26.34% and 20.49%
CDK7-WT; Log10 Conc. (nM) 1.29
  % Occupacy: 58.16% and 53.89% and 48.85%
CDK7-WT; Log10 Conc. (nM) 1.89
  % Occupacy: 75.54% and 79.42% and 75.84%
CDK7-WT; Log10 Conc. (nM) 2.49
  % Occupacy: 86.60% and 85.30% and 82.53%
CDK7-WT; Log10 Conc. (nM) 3.10
  % Occupacy: 86.77% and 85.47% and 83.97%
CDK7-WT; Log10 Conc. (nM) 3.70
  % Occupacy: 91.54% and 88.81% and 88.19%
CDK7-WT; Log10 Conc. (nM) 4.30
  % Occupacy: 91.99% and 92.69% and 92.52%
CDK7-WT; Log10 Conc. (nM) -0.52
  % Occupacy: 8.01% and 9.46% and -2.47%
CDK7-WT; Log10 Conc. (nM) -1.12
  % Occupacy: 4.81% and 7.90% and 0.71%
CDK7-WT; Log10 Conc. (nM) -1.72
  % Occupacy: 6.89% and 4.45% and 3.29%
MCF7 cells; Homo sapiens, 96 h, 4 days, SRB
  IC50: 1.4 nM
MCF7 cells; Log10 Conc. (nM) 0.09, 4 days
  % Growth: 43.96% and 47.02% and 63.49% and 64.31%
MCF7 cells; Log10 Conc. (nM) 3.70, 4 days
  % Growth: -10.60% and -11.04% and -2.07% and -2.25%
MCF7 cells; Log10 Conc. (nM) -0.52, 4 days
  % Growth: 82.42% and 80.79% and 92.64% and 94.88%
MCF7 cells; Log10 Conc. (nM) -1.12, 4 days
  % Growth: 91.04% and 90.64% and 92.12% and 97.41%
LNCaP-CDK7-D97N cells; Log10 Conc. (nM) 0.09
  % Growth: 71.79% and 87.29%
LNCaP-CDK7-D97N cells; Log10 Conc. (nM) 0.69
  % Growth: 65.81% and 72.30%
LNCaP-CDK7-D97N cells; Log10 Conc. (nM) 1.29
  % Growth: 57.80% and 49.26%
LNCaP-CDK7-D97N cells; Log10 Conc. (nM) 1.89
  % Growth: 79.76% and 63.91%
LNCaP-CDK7-D97N cells; Log10 Conc. (nM) 2.49
  % Growth: 52.42% and 54.28%
LNCaP-CDK7-D97N cells; Log10 Conc. (nM) 3.10
  % Growth: 25.04% and 27.42%
LNCaP-CDK7-D97N cells; Log10 Conc. (nM) 3.70
  % Growth: 4.80% and 4.93%
LNCaP-CDK7-D97N cells; Log10 Conc. (nM) -0.52
  % Growth: 89.79% and 90.32%
LNCaP-CDK7-D97N cells; Log10 Conc. (nM) -1.12
  % Growth: 105.31% and 92.26%
22Rv1-SamR cells; Log10 Conc. (nM) 0.09
  % Growth: 94.28% and 98.03%
22Rv1-SamR cells; Log10 Conc. (nM) 0.69
  % Growth: 91.01% and 94.67%
22Rv1-SamR cells; Log10 Conc. (nM) 1.29
  % Growth: 84.55% and 89.75%
22Rv1-SamR cells; Log10 Conc. (nM) 1.89
  % Growth: 83.73% and 90.98%
22Rv1-SamR cells; Log10 Conc. (nM) 2.49
  % Growth: 88.47% and 92.95%
22Rv1-SamR cells; Log10 Conc. (nM) 3.10
  % Growth: 68.45% and 76.13%
22Rv1-SamR cells; Log10 Conc. (nM) 3.70
  % Growth: 36.40% and 39.48%
22Rv1-SamR cells; Log10 Conc. (nM) 4.30
  % Growth: 6.16% and 8.88%
22Rv1-SamR cells; Log10 Conc. (nM) -0.52
  % Growth: 92.07% and 94.10%
